Experimental data as given in paper PMC3215231, “Arcanolysin is a cholesterol-dependent cytolysin of the human pathogen Arcanobacterium haemolyticum” (BMC Microbiology, 2011).

Molecular target: PFO (perfringolysin O), His-tagged PFO (Clostridium perfringens, UniProt P0C2E9)
Format: biochemical

PFO (perfringolysin O), His-tagged PFO, sequence (P0C2E9 29-500 limits assumed): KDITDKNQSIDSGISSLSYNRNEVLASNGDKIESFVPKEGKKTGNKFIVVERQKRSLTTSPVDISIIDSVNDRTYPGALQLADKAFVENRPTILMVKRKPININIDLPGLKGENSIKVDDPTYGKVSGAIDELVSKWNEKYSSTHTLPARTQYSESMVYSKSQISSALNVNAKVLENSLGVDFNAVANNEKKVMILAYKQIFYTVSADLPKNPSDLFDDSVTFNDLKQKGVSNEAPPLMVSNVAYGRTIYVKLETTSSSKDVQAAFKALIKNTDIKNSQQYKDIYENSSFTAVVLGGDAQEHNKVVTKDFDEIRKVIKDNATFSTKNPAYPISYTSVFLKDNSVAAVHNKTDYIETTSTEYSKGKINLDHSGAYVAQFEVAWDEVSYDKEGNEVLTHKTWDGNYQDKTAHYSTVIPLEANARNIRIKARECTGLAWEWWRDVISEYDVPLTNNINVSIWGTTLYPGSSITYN

CC(C)CCC[C@@H](C)[C@H]1CC[C@H]2[C@@H]3CC=C4C[C@@H](O)CC[C@]4(C)[C@H]3CC[C@]12C [cholesterol]
% activity retained at 0.5 μM cholesterol: 7.6%
